Experimental data taken from paper PMC2033360, “Effects of a new antioestrogen, idoxifene, on cisplatin- and doxorubicin-sensitive and -resistant human ovarian carcinoma cell lines” (British Journal of Cancer, 1994).
Read-outs that look alike come from different tables or passages of the source.

Assays:
CH1cisR6 cells [1] = details: acquired cisplatin-resistant line versus parent
41McisR6 cells [2] = experiment: SRB cytotoxicity assay, 41McisR6; assay type: cell-based, human; details: acquired cisplatin-resistant line versus parent
[3] = biological target: T1, calmodulin-dependent cyclic AMP phosphodiesterase (Homo sapiens, UniProt P0DP23); experiment: Inhibition of calmodulin-dependent cyclic AMP phosphodiesterase; assay type: biochemical; details: unpublished data of the authors
Text: (§1) Sary Pyroidno-4-iodotamoxifen (idoxifene) is a new non-steroidal antioestrogen currently undergoig phase I clnical evaluation. […] One agent that has featured in studies of both doxorubicin and cilatin resist- ance has been the extensively used antioestrogen tamoxifen. […] Tlhe purposes of this study were 3-fold. Initially, using a series of tamoxifen analogues of known inhibitory constants for calmodulin, the effect of increasing calmodulin inhibition on cytotoxicity against four human ovarian carcnoma cell lines was determined. […] Materials and mehod Drugs and chemicals The structures of tamoxifen and the various analogues of tamoxifen used are illustrated in Figure 1. […] Calmidazolium (R24571), Correspondence: L.R. Kelland, Drug Development Section, The Institute of Cancer Research, Block E, 15 Cotswold Road, Sutton, Surrey SM2 5NG, UK. […] Cytotoxicity data were then fitted to regression lines, and the concentration of each drug which produced a given level of cytotoxicity (fractional effect, Fa) alone or in combination was determined. Combination index (CI) for a given Fa was calculated as: CI = d' + td D-1 + D2 where DI and D2 are the doses of drugs 1 and 2, which by themselves produce a given Fa (i.e. IC5o); d' and d2 are the doses which produce the same Fa in combination. […]

CH1cisR6 cells [4] = experiment: DNA interstrand cross-link repair by alkaline elution, CH1cisR6; assay type: cell-based, human
Text: as §1

CH1 cells [5] = experiment: DNA interstrand cross-link repair by alkaline elution, CH1; assay type: cell-based, human
Text: as §1

CH1doxR cells = experiment: SRB cytotoxicity assay, CH1doxR; details: for Rf, resistance factor (IC50 resistant line/IC50 parent line), CH1doxR/CH1: doxorubicin resistance
Text: (§2) Sary Pyroidno-4-iodotamoxifen (idoxifene) is a new non-steroidal antioestrogen currently undergoig phase I clnical evaluation. […] One agent that has featured in studies of both doxorubicin and cilatin resist- ance has been the extensively used antioestrogen tamoxifen. […] Tlhe purposes of this study were 3-fold. Initially, using a series of tamoxifen analogues of known inhibitory constants for calmodulin, the effect of increasing calmodulin inhibition on cytotoxicity against four human ovarian carcnoma cell lines was determined. […] Materials and mehod Drugs and chemicals The structures of tamoxifen and the various analogues of tamoxifen used are illustrated in Figure 1. […] Calmidazolium (R24571), Correspondence: L.R. Kelland, Drug Development Section, The Institute of Cancer Research, Block E, 15 Cotswold Road, Sutton, Surrey SM2 5NG, UK. […] Briefly, the analysis compares the effects of drug combinations to the effects of individual drugs across the entire dose-effect range. Cytotoxicity data were then fitted to regression lines, and the concentration of each drug which produced a given level of cytotoxicity (fractional effect, Fa) alone or in combination was determined. Combination index (CI) for a given Fa was calculated as: CI = d' + td D-1 + D2 where DI and D2 are the doses of drugs 1 and 2, which by themselves produce a given Fa (i.e. IC5o); d' and d2 are the doses which produce the same Fa in combination. CI= I indicates zero interaction (additive cytotoxicity), CI <I indicates synergy and CI> 1 indicates antagonism (Chou computer program, Biosoft). […] All cell lines were grown as monolayers in Dulbecco's modified Eagle medium (DMEM) supplemented with 10% heat-iactivated fetal calf serum (Imperial Laboratores, Andover, UK), 50 gml-' gentamic 2.5 jg ml-' ampho- tericin B, 2 mM L-glutmie 10 jag ml- insulin and 0.5 jgmml' hydrocorisone in a 10% carbon dioxide, 90% air atmosphere. […] Assssment of cytotoxicity Tamoxifen and the analogues of tamoxifen were dissolved immediately before use in absolute ethanol at 20 mM. […]

CH1 cells [6] = experiment: SRB cytotoxicity assay, CH1; details: Homo sapiens, CH1, read-out: 96 h IC50, doxorubicin cytotoxicity, CH1
41MdoxR cells = experiment: SRB cytotoxicity assay, 41MdoxR; details: for Rf, resistance factor (IC50 resistant line/IC50 parent line), 41MdoxR/41M: doxorubicin resistance
Text: as §2

41M cells = experiment: SRB cytotoxicity assay, 41M; details: Homo sapiens, read-out: 96 h IC50, doxorubicin cytotoxicity, 41M
Text: as §1

[7] = system: four human ovarian carcinoma cell lines; experiment: cells; details: read-out: mean IC50 across four human ovarian carcinoma cell lines (cytotoxicity)
Text: as §1

[8] = system: human ovarian carcinoma cell lines; experiment: Highest non-toxic concentration of the resistance modifiers, preliminary experiments; assay type: cell-based; details: <10% cell kill in any one cell line; continuous drug exposure
Text: as §1

41McisR6 cells [9] = experiment: Intracellular platinum accumulation (flameless atomic absorption), 41McisR6; assay type: cell-based, human; details: 2 h exposure to cisplatin alone or with 2 microM idoxifene
Text: as §1

[10] = biological target: T1, calmodulin-dependent cyclic AMP phosphodiesterase; parameters: method as in Rowlands et al., 1990; details: values taken from previous determinations; ref Rowlands et al., 1990; read-out: calmodulin IC50 (inhibition of calmodulin-dependent cyclic AMP phosphodiesterase); cited from earlier work
CH1cisR6 cells [11] = experiment: Intracellular platinum accumulation (flameless atomic absorption), CH1cisR6; assay type: cell-based, human; details: 2 h exposure to cisplatin alone or with 2 microM idoxifene
Text: as §1

[12] = after 2 h exposure to cisplatin 25 microM, removed at 2 h versus 5 h (so in the source)
[13] = after 2 h cisplatin 25 microM, removal in presence of 2 microM idoxifene

Compound: CC/C(=C(/c1ccc(OCCN(C)C)cc1)c1cccc(O)c1)c1ccccc1 [3-hydroxytamoxifen]
- Rf, resistance factor (IC50 resistant line/IC50 parent line), CH1cisR6/CH1 (CH1cisR6 cells [1]): < 1
- Rf, resistance factor (IC50 resistant line/IC50 parent line), 41McisR6/41M (41McisR6 cells [2]): < 1
- IC50 [3]: 13000 nM

Compound: CC/C(=C(/c1ccc(I)cc1)c1ccc(OCCN(C)C)cc1)c1ccccc1 [4-iodotamoxifen]
- Rf, resistance factor (IC50 resistant line/IC50 parent line), CH1cisR6/CH1 (CH1cisR6 cells [1]): < 1
- Rf, resistance factor (IC50 resistant line/IC50 parent line), 41McisR6/41M (41McisR6 cells [2]): < 1

Compound: Clc1ccc(C(c2ccc(Cl)cc2)n2cc[n+](CC(OCc3ccc(Cl)cc3Cl)c3ccc(Cl)cc3Cl)c2)cc1 (stereo not drawn) [calmidazolium]
- Rf, resistance factor (IC50 resistant line/IC50 parent line), CH1cisR6/CH1 (CH1cisR6 cells [1]): < 1
- Rf, resistance factor (IC50 resistant line/IC50 parent line), 41McisR6/41M (41McisR6 cells [2]): < 1

Compound: N.N.[Cl][Pt][Cl] [cisplatin, cis-diamminedichloroplatinum (II)]
- removal of cross-links, CH1cisR6 (CH1cisR6 cells [4]; [12]): 90%
- removal of cross-links, CH1 (CH1 cells [5]; [12]): 15%

Compound: COc1cccc2c1C(=O)c1c(O)c3c(c(O)c1C2=O)C[C@@](O)(C(=O)CO)C[C@@H]3O[C@H]1C[C@H](N)[C@H](O)[C@H](C)O1 [doxorubicin]
- IC50 (CH1doxR cells; Homo sapiens, read-out: 96 h IC50, doxorubicin cytotoxicity, CH1doxR): 460 nM
- Rf, resistance factor (IC50 resistant line/IC50 parent line), CH1doxR/CH1 (CH1doxR cells): ~90
- Rf, resistance factor (IC50 resistant line/IC50 parent line), CH1doxR/CH1 (CH1doxR cells; listed as Doxorubicin): 87
- IC50 (CH1 cells [6]): 5.3 nM
- IC50 (41MdoxR cells; Homo sapiens, read-out: 96 h IC50, doxorubicin cytotoxicity, 41MdoxR): 280 nM
- Rf, resistance factor (IC50 resistant line/IC50 parent line), 41MdoxR/41M (41MdoxR cells): approximately 7
- Rf, resistance factor (IC50 resistant line/IC50 parent line), 41MdoxR/41M (41MdoxR cells; listed as Doxorubicin): 7.2
- IC50 (41M cells): 39 nM

Compound: CC/C(=C(\c1ccc(I)cc1)c1ccc(OCCN2CCCC2)cc1)c1ccccc1 [idoxifene, Pyrrolidino-4-iodotamoxifen]
- Rf, resistance factor (IC50 resistant line/IC50 parent line), CH1cisR6/CH1 (CH1cisR6 cells [1]): < 1
- effect on rate of DNA interstrand cross-link (ISC) removal, CH1cisR6 (CH1cisR6 cells [4]; [13]): did not markedly affect
- effect on rate of DNA interstrand cross-link (ISC) removal, CH1 (CH1 cells [5]; [13]): did not markedly affect
- IC50 [7]: 4500 nM
- Rf, resistance factor (IC50 resistant line/IC50 parent line), 41McisR6/41M (41McisR6 cells [2]): < 1
- highest non-toxic concentration [8]: 2 µM
- effect on platinum accumulation, 41McisR6 (41McisR6 cells [9]): no significant difference
- IC50 [10]: 1400 nM
- effect on platinum uptake, CH1cisR6 (CH1cisR6 cells [11]): no difference in uptake

Compound: CC/C(=C(\c1ccccc1)c1ccc(OCCN(C)C)cc1)c1ccccc1 [tamoxifen]
- Rf, resistance factor (IC50 resistant line/IC50 parent line), CH1cisR6/CH1 (CH1cisR6 cells [1]): < 1
- IC50 [7]: 6300 nM
- Rf, resistance factor (IC50 resistant line/IC50 parent line), 41McisR6/41M (41McisR6 cells [2]): < 1
- highest non-toxic concentration [8]: 4 µM
